In general, IC50 refers to the midpoint of a concentration-inhibition curve. One may read the MIC as the lowest concentration that inhibits growth of the organism. The term EC50 denotes the concentration needed to bring the measured effect to its halfway point.

The subject of test [1] is Candida albicans. Put plainly: Antifungal activity against Candida albicans assessed as fungal growth inhibition. Type of test: functional, organism-based.
A further test deals with Acinetobacter baumannii. Description: Antibacterial activity against Acinetobacter baumannii ATCC 19606 assessed as bacterial growth inhibition incubated for 24 hrs by broth micro dilution method. It counts as functional.
The test system of the next test is Pseudomonas aeruginosa. Put plainly: Antibiofilm activity against Pseudomonas aeruginosa assessed as inhibition of biofilm formation incubated for 24 hrs by crystal violet method. It counts as functional, organism-based.
The subject of test [2] is Staphylococcus aureus. Put plainly: Antibacterial activity against Staphylococcus aureus assessed as bacterial growth inhibition. It counts as functional, organism-based.
The test system of a further test is Bacillus subtilis. Description: Antibacterial activity against Bacillus subtilis assessed as bacterial growth inhibition. It counts as functional, organism-based.
A further test concerns Cryptococcus neoformans. Put plainly: Antifungal activity against Cryptococcus neoformans assessed as fungal growth inhibition. It counts as functional, organism-based.
A further test relates to Micrococcus luteus. Description: Antibacterial activity against Micrococcus luteus assessed as bacterial growth inhibition. It counts as functional, organism-based.
Test [3] deals with Trichophyton mentagrophytes. Put plainly: Antifungal activity against Trichophyton mentagrophytes assessed as fungal growth inhibition. It counts as functional, organism-based.
For test [4], the system named is Mycobacterium tuberculosis. Description: Antibacterial activity against […] assessed as bacterial growth inhibition. Type of test: functional.
Test [5] has as its system Candida albicans. Description: Antimicrobial activity against Candida albicans ATCC 14053 assessed as zone of inhibition incubated for 24 hrs by disc diffusion method. Type of test: functional. In general terms: In agar diffusion tests the substance spreads into inoculated agar from a disc or well.
For test [6], the system named is Staphylococcus aureus. Put plainly: Antimicrobial activity against Staphylococcus aureus ATCC 25923 assessed as zone of inhibition incubated for 24 hrs by disc diffusion method. Type of test: functional.
Test [7] has as its system Escherichia coli. Put plainly: Antimicrobial activity against Escherichia coli assessed as microbial growth inhibition by microdilution method. It counts as functional. For orientation: Broth dilution looks for growth in wells or tubes with falling amounts of substance.
Test [8] concerns Staphylococcus aureus. Description: Antimicrobial activity against methicillin-resistant Staphylococcus aureus assessed as microbial growth inhibition by broth microdilution method. It counts as functional.
For test [9], the system named is Candida albicans. Put plainly: Antimicrobial activity against Candida albicans assessed as microbial growth inhibition by microdilution method. It counts as functional.
For test [10], the system named is Staphylococcus aureus. Put plainly: Antibiofilm activity against Staphylococcus aureus ATCC 6538 assessed as inhibition of biofilm formation incubated for 24 hrs by crystal violet method. Type of test: functional, organism-based. Conditions: ATCC 6538, 24 h.
The subject of test [11] is Vibrio natriegens. Put plainly: Antimicrobial activity against Vibrio natriegens ATCC 14048 assessed as inhibition of bacterial adhesion incubated for 48 hrs by crystal staining method. Type of test: functional.
Test [12] concerns Vibrio natriegens. Description: Antimicrobial activity against Vibrio natriegens ATCC 14048 assessed as microbial growth inhibition incubated for 48 hrs by spectrophotometry. It counts as functional.
In another test the test system is Hepatitis C virus. Description: Antiviral activity against HCV J8CC infected in human Huh7.5 cells assessed as viral growth inhibition incubated for 48 hrs by light microscopy. Type of test: functional, organism-based, Hepacivirus hominis. Conditions: Huh7.5, 48 h.
The next test has as its system Aspergillus niger. Description: Antifungal activity against Aspergillus niger assessed as fungal growth inhibition. It counts as functional, organism-based.
Test [13] deals with Staphylococcus aureus. Put plainly: Antibiofilm activity against Staphylococcus aureus ATCC 25923 assessed as inhibition of biofilm formation incubated for 24 hrs by crystal violet method. It counts as functional, organism-based. The conditions noted are these: ATCC 25923, 24 h.
Test [14] concerns Staphylococcus aureus. Description: Antibiofilm activity against Methicillin-resistant Staphylococcus aureus B1 assessed as inhibition of biofilm formation measured after 24 to 48 hrs by MTT assay. The conditions noted are these: time 24-48 hrs. It counts as functional. For orientation: Tetrazolium assays rely on reduction of a dye to a coloured formazan, in cell work by metabolically active cells.

Another test concerns Enterococcus faecalis. Put plainly: Antibiofilm activity against Vancomycin-resistant Enterococcus faecalis W1 assessed as inhibition of biofilm formation measured after 24 to 48 hrs by MTT assay. It counts as functional. Conditions: time 24-48 hrs.
The subject of a further test is Mycolicibacterium phlei. Description: Antibacterial activity against Mycobacterium phlei assessed as bacterial growth inhibition. It counts as functional, organism-based.
Test [15] relates to Escherichia coli. Description: Antibacterial activity against Escherichia coli assessed as bacterial growth inhibition by agar dilution method. It counts as functional.
Another test deals with Klebsiella aerogenes. Put plainly: Antibacterial activity against Enterobacter aerogenes assessed as bacterial growth inhibition by agar dilution method. It counts as functional.

SMILES strings stand for the structures. ≈ marks a conversion by molar mass, not a printed value.

As to `Brc1ccc2c(-c3c[nH]c(-c4c[nH]c5cc(Br)ccc45)n3)c[nH]c2c1` [NORTOPSENTIN A], the IC50 in the test with Candida albicans [1] was found to be 6.8 µM.

`C[C@@H]1N[C@H]2N(C1=O)c1ccccc1[C@@]2(O)C[C@H](C(=O)O)n1cnc2ccccc2c1=O`: in the test on Acinetobacter baumannii, the MIC came to 14.9 µM (≈ 6.26 µg/mL).

As to `Cn1cc(-c2csc(-c3cn(CCN)c4ccc(F)cc34)n2)c2ccccc21`, the IC50 in the test on Pseudomonas aeruginosa came out at 9.9 µM.

Consider `C[N+](C)(C)CC(c1c[nH]c2cc(Br)ccc12)c1c(O)c(O)c2c3c(nccc13)C=CN2` (stereo not drawn), for which the IC50 in the test on Staphylococcus aureus [2] was 4.2 µM; in the test with Bacillus subtilis, 4.2 µM; with Cryptococcus neoformans it was 0.5 µM; in the test on Candida albicans [1], 0.5 µM; in the test with Micrococcus luteus, 4.2 µM; in [3], 0.5 µM.

For the compound `O=C1N[C@@H](Cc2c[nH]c3ccccc23)C(=O)N2CCC[C@@H]12` [BREVIANAMIDE F], the MIC in test [4] was found to be 44.1 µM (≈ 12.5 µg/mL). Moreover, the “diameter of the inhibition zone (DIZ)” value with Candida albicans [5] was determined as 25 mm; with Staphylococcus aureus [6], 19 mm.

Take `C[N+](C)(C)CC(c1c[nH]c2ccccc12)c1c(O)c(O)c2c3c(nccc13)C=CN2` (stereo not drawn): in the test on Candida albicans [1], the IC50 worked out at 19.9 µM.

Regarding `CC(C)CC(=O)Nc1c(O)c(C(C[N+](C)(C)C)c2c[nH]c3cc(Br)ccc23)c2ccnc3c2c1NC=C3` (stereo not drawn), the IC50 in the test with Candida albicans [1] is 14.2 µM.

With `Cn1c[n+](C)c(C(=O)c2nc(C(=O)O)cc3c2[nH]c2ccc(O)cc23)c1[S+](C)[O-]` (stereo not drawn), in the test with Candida albicans [1], the IC50 stood at 4.8 µM.

On to `Cc1cncc(Cc2c[nH]c3ccccc23)n1`, for which the MIC in the test with Escherichia coli [7] amounted to 35.8 µM; in the test with Staphylococcus aureus [8] it was 53.7 µM (≈ 12 µg/mL); in the test on Candida albicans [9], 62.7 µM.

On to `CSc1c(-c2c(-c3c[nH]c4ccc(O)cc34)c(=O)n3c4ccc(O)cc4c4cc(C(=O)O)nc2c43)[n+](C)cn1C`, for which the IC50 with Cryptococcus neoformans and in the test on Candida albicans [1] was 14.5 µM each time.

`COCCn1cc(-c2nc(-c3c[nH]c4ccccc34)cs2)c2cc(F)ccc21`: the IC50 in the test with Staphylococcus aureus [10] was 0.7 µM.

Take `C/N=C1\NC(Cc2c[nH]c3cc(Br)ccc23)C(=O)N1C` (stereo not drawn): the MIC was determined as 298 µM (≈ 100 µg/mL) in the test with Vibrio natriegens [11] and 0.03 µM (≈ 0.0101 µg/mL) in the test on Vibrio natriegens [12].

For the compound `CC(C)[C@@H]1NC(=O)[C@@H](C[C@@]2(O)c3ccccc3N3C(=O)C(C)(C)N[C@@H]32)n2c1nc1ccccc1c2=O`, the EC50 with Hepatitis C virus turned out to be 129 µM.

Consider `C[C@@H]1NC(=O)[C@@H](Cc2c[nH]c3ccccc23)n2c1nc1ccccc1c2=O` [FUMIQUINAZOLINE F], for which the figures for the MIC in the test on Staphylococcus aureus [2] and with Micrococcus luteus were 382 µM (≈ 137 µg/mL) and 276 µM (≈ 99 µg/mL), respectively.

In the case of `O=C(c1c[nH]c2ccc(O)cc12)[C@H](O)[C@@H](O)C(=O)c1c[nH]c2ccc(O)cc12`, the IC50 with Aspergillus niger amounted to 21 µM; in test [3], 42.1 µM.

`COCCn1cc(-c2nc(-c3cn(C)c4ccccc34)cs2)c2cc(F)ccc21`: the IC50 in the test with Staphylococcus aureus [13] came to 0.4 µM.

Take `CC(C)[C@@H]1NC(=O)[C@@H](C[C@]2(O)c3ccccc3N3C(=O)[C@@H](C)N[C@H]32)n2c1nc1ccccc1c2=O`: the figures for the BIC in the test on Staphylococcus aureus [14] and in the test with Enterococcus faecalis were 202.7 µM and 168.9 µM, respectively.

On to `Brc1ccc2c(-c3nc(-c4c[nH]c5ccccc45)c[nH]3)c[nH]c2c1` [NORTOPSENTIN B], for which the 50% inhibitory concentration (IC50) in the test on Candida albicans [1] worked out at 6.8 µM.

Take `O=C(C1=N[C@@H](c2c[nH]c3cc(Br)ccc23)CN1)c1c[nH]c2ccccc12`: the MIC in the test on Staphylococcus aureus [8] was found to be 15.4 µM (≈ 6.27 µg/mL).

Turning to `O=C1CN=C(c2c[nH]c3ccc(O)cc23)c2c(O)ccc3[nH]cc1c23`, the IC50 in [3] was 48.3 µM.

Consider `C=CC(C)(C)c1c(CCNC)c2ccccc2n1CC=C(C)C`, for which the IC50 stood at 7.7 µM with Mycolicibacterium phlei and 22.6 µM in the test with Micrococcus luteus.

As to `CC(C)[C@H]1NC(=O)[C@@H]2CC3(C45C[C@H]6C(=O)N[C@H](C(C)C)C(=O)N6[C@H]4Nc4ccccc45)c4ccccc4N[C@@H]3N2C1=O` (stereo partly drawn), the MIC in the test with Escherichia coli [15] and with Klebsiella aerogenes was 44 µM (≈ 25 µg/mL) each time.

The values are drawn from ChEMBL document CHEMBL5113373, “Tryptophan derived natural marine alkaloids and synthetic derivatives as promising antimicrobial agents” (Eur J Med Chem, 2021).
